{"source": "patent US8986696B2", "about": "“Trans-capsular administration of p38 map kinase inhibitors into orthopedic joints” (DePuy Mitek, Inc., priority 2007, dated 2015)", "key": {"[1]": {"system": "IL-1β-stimulated NO production, bovine chondrocyte pellets / ARC tissues", "experiment": "chondrocyte pellet culture model: total nitrite/nitrate (NO)", "assay_type": "cell-based", "details": "for NO production: 10 ng/ml IL-1β", "from_the_text": "Calf articular cartilage was obtained from the knee joints of eight to twelve month old animals and was processed within twenty-four hours after sacrifice. After removal of muscle and ligament, the cartilage was kept moist using phosphate buffer solution (PBS) to prevent tissue dehydration, and was aseptically peeled off from subchondral bone with a scalpel, and the cartilage pieces were further minced into smaller pieces (˜0.3-0.5×˜0.2-0.5 cm cubes). […] Chondrocytes were then enzymatically isolated from the tissue by incubation for overnight at 37° C. with gentle agitation in 0.2% collagenase in Dulbecco's modified eagle media (DMEM). After removal of tissue debris by filtration through cell strainer and the residual collagenase by 3× wash in PBS, cells were finally resuspended at a density of 2.5×10^6 cells/ml in chondrocyte medium. A 1 ml aliquot of the cell suspension was dispensed into either a 15 ml Falcon centrifuge tube or a 96 deep-well plate and centrifuged at 2000×g for five minutes. The chondrocyte pellets were incubated at 37° C. in a humidified atmosphere of 5% CO2 for two to three weeks with a medium change every other day.\nAs an alternative to using calf articular cartilage, a commercial Alginate Recovered Chondrocytes (ARC) system was also used (Articular Engineering, LLC (Northbrook, Ill.)). Use of the commercial system cut down on labor and time in producing chondrocyte pellet. This system produced cartilaginous tissue in vitro using bovine chondrocytes. The first step consisted of culturing chondrocytes in alginate under conditions optimal for the formation of a cell-associated matrix (CM). The second step allowed these cells with their CM, after recovery, to rapidly form and become integrated into a solid mass of cartilage on a porous insert within two weeks. This tissue is rich in cells surrounded by a cell-associated matrix that is degraded rapidly when the cells are exposed to IL-1. ARC tissues in 3 mm punches at delivery were first dispensed into a 96 deep-well plate, one punch per well, for compound treatment. The subsequent procedures were the same as those used for the chondrocyte pellets.\nChondrocyte pellets were washed once with 1 ml of Chondrocyte Stimulation Medium and equilibrated in the same medium at room temperature for fifteen to thirty minutes. Compounds were dissolved in H2O, Ethanol or dimethyl sulfoxide (DMSO) (10^−2 M) according to suppliers' instructions and further diluted with Chondrocyte Stimulation Medium to the required concentrations. DMSO concentrations in the culture media should not exceed 1%; this concentration of DMSO has no effect on cartilage proteoglycan metabolism in response to cytokines.\nThe pellets were first treated with compounds at desired concentrations at 37° C. for one hour and then incubated for three to five days in the absence or presence of 10 ng/ml of IL-1β. At the end of the incubation, media and pellets were harvested and frozen for further analysis. Pellets were also fixed as needed in 4% (w/v) paraformaldehyde in PBS for histology analysis.\nNitrate/Nitrite levels were measured using the Griess reaction (Green L. C. et al., “Analysis of Nitrate, Nitrite, and [15N]nitrate in Biological Fluids,” Anal. Biochem. 126: 131-138 (1982)) with aNitrate/Nitrite Colorimetric Assay Kit (Cayman Chemicals), the contents of which are incorporated herein by reference. The assay involved a simple two-step process. The first step involved conversion of nitrate in 50 μl of culture medium to nitrite utilizing nitrate reductase in a reaction volume of 100 μl at room temperature for two hours. The second step involved the addition of 50 μl of both Griess Reagent 1 and 2, which converted nitrite into a deep purple azo compound in ten minutes. Photometric measurement of the absorbance at 540 or 550 nm due to this azo chromophore accurately determined nitrite concentration. […]"}, "[2]": {"assay_type": "physicochemical", "method": "JNJ 3026582 (RWJ 67657) was gamma irradiated on dry ice at a dose of 15 kgray. Then the sterile drug was aseptically mixed with ORTHOVISC® in the concentrations of 10 μg/mL and 100 μg/mL. Drug content uniformity was confirmed by reverse phase HPLC. There was approximately 100% drug stability.\nJNJ 17089540 (RWJ 669307) was gamma irradiated on dry ice at a dose of 15 kgray. The sterile drug as aseptically mixed with ORTHOVISC® in the concentrations of 1 ug/uL and 10 ug/uL. Drug content uniformity was confirmed by reverse phase HPLC. There was approximately 100% drug stability.\nSuprofen was gamma irradiated on dry ice at dose of 15 kgray. The sterile drug was aseptically mixed with ORTHOVISC® in the concentration of 1.3 ug/uL. Drug content uniformity at time of preparation and stability of 4 months at 4° C. was confirmed by reverse phase HPLC that there was around 100% drug stability."}}, "note": "Like-named read-outs stand apart in the source and are kept apart here."}
{"smiles": "C[C@H](Nc1nccc(-c2c(-c3ccc(F)cc3)nc3nc(N)ccn23)n1)c1ccccc1", "note": "[JNJ 7583979 (RWJ 351958)]", "values": [{"measurement": "NO production", "setting": "[1]; ARC", "value": "significantly inhibited"}]}
{"smiles": "CC(=O)N1CCN(c2c(-c3ccncc3)c(-c3ccc(F)cc3)c(C#N)n2C)CC1", "note": "[JNJ 17089540 (RWJ 669307)]", "values": [{"measurement": "IC50", "setting": "[1]; Pellet Assay, read-out: NO Inhibition IC50", "value": 4.9, "unit": "µM"}, {"measurement": "IC50", "setting": "[1]; bovine ARC, 7.5 ng/ml IL-1β, five days, read-out: NO IC50", "value": 4.92, "unit": "µM"}, {"measurement": "drug stability", "setting": "[2]", "value": "approximately 100%"}]}
{"smiles": "OCCC#Cc1nc(-c2ccc(F)cc2)c(-c2ccncc2)n1CCCc1ccccc1", "note": "[JNJ 3026582 (RWJ 67657), 4-[4-(4-fluorophenyl)-1-(3-phenylpropyl)-5-(4-pyridinyl)-1H-imidazol-2-yl]-3-butyn-1-ol]", "values": [{"measurement": "drug stability", "setting": "[2]", "value": "approximately 100%"}]}
{"smiles": "CC(=O)Oc1cccc2c1C(=O)c1c(OC(C)=O)cc(C(=O)O)cc1C2=O", "note": "[Diacerein, reference compound]", "values": [{"measurement": "NO production", "setting": "[1]; diacerein at 5.4 μM, rhein at 0.35 μM", "value": "significantly inhibited"}]}
{"smiles": "CC(C(=O)O)c1ccc(C(=O)c2cccs2)cc1", "note": "(stereo not shown) [Suprofen, reference compound]", "values": [{"measurement": "drug stability", "setting": "[2]; 4 months, 1.3 ug/uL", "value": "around 100%"}]}
